By Kd is commonly meant a measure of binding affinity in units of concentration.

Consider 6 compounds from patent US7294463B2, “Method of screening for compounds that modulate activity of a regulatory sequence of the β-2 subunit of a neuronal nicotinic acetylcholine receptor” (Institut Pasteur, priority 1994, dated 2007).

Where two headings read alike, the source gives them in different places.

The subject of experiment [1] is nuclear extracts from neuroblastomas or fibroblasts. As to the kind of experiment: Gel shift assay, competition against 32P labelled E-D probe. In kind it is binding. Particulars: excess of unlabelled competitor. An excerpt: FIG. 7: Gel shift experiment. Autoradiogram of the mobility shift experiment. The probe used was a ^32P labelled double stranded E-D oligonucleotide. This oligonucleotide carries only the E-Box/Dyad element, whereas the oligonucleotide S-E carries the Sp1 binding site as well as the E-Box/Dyad element. The competitor oligonucleotides were used in 10- and 100-fold molar excess, except for S-E that was used only in 100-fold molar excess.
Oligonucleotides were labeled either with Y[^32P]ATP and T4 polynucleotide kinase, or with ∝[^32P]CTP and Klenow enzyme as in Current Protocols in Molecular Biology. Nuclear extracts were prepared from ˜10^7 cells as described (Bessis et al., 1993). For binding, […] of labeled oligonucleotide was mixed with 0.5 μg of protein extract in 10 mM Hepes pH 8, 10% glycerol], 0.1 mM EDTA, 0.1 M NaCl, 2 mM DTT, 0.1 mg/ml BSA, 4 mM MgCl2, 4 mM spermidine, 1 mM PMSF, 1 μg polydldC in 20 μl. The reaction was incubated for 10 minutes on ice. The DNA-protein complexes were then analyzed on a 7% polyacrylamide gel.
To further understand the role of the E-Box in the regulation of the promoter, we investigated the protein complexes able to interact with this sequence. Gel shift assays were performed using the 33 bp sequence (nt-135 to -103, oligonucleotide E-D) as a probe. […]
In general terms: In EMSA bound probe runs differently from free probe, usually more slowly.

Another experiment has as its system neurons in the MHb. As to the kind of experiment: Patch clamp recording of nicotine evoked currents, medial habenula (MHb). The class given is cell-based, mouse. Particulars: for Agonist potency rank order: wild type. On the procedure: (§1) METHODS, Coronal slices were obtained from the thalamus of 8-12 day old mice using a Dosaka slicer in ice cold ACSF medium (125 mM NaCl/26 mM NaHCO3/25 mM Glucose/1.25 mM NaH2PO4/2.5 mM KCl 2.5/2 mM CaCl2/1 mM MgCl2 pH 7.3). Slices were maintained in the same medium for 1-8 hours. Cells in slices were visualized through a Zeiss microscope. Whole cell recordings were obtained with 2-4 MOhm hard-glass pipettes containing 150 mM CsCl/10 mM EGTA/10 mM HEPES/4 mM di-sodium ATP/4 mM MgCl2 pH adjusted to 7.3 with KOH. Five to ten sec. pulses of drug were applied rapidly to the cell through a […] pipette above the slice, fed by gravity with a solution containing 150 mM NaCl/10 mM Hepes/2.5 mM KCl/2 mM CaCl2/1 mM MgCl2. Recordings were made in the presence of CNQX (5 μM) and of the GABAA antagonist SR-95531 (10 μM). Currents were recorded with an Axopatch ID (Axon Instrument) patch amplifier, digitized on a Compaq PC and further analyzed with the PClamp program (Axon Instrument).
On the technique in general: The patch-clamp technique gives a direct electrical read-out from membranes.

The subject of experiment [2] is neurons of the anterior thalamus. The class given is cell-based, mouse. On the procedure:
as §1

In experiment [3] the target is high affinity nAChR (Mus musculus, UniProt O70174+Q9ERK7). Particulars: 3H-nicotine 4 nM, all brain areas of β2+/− mice.
high affinity nAChR (Mus musculus, UniProt O70174+Q9ERK7), sequence (Q9ERK7 26-501): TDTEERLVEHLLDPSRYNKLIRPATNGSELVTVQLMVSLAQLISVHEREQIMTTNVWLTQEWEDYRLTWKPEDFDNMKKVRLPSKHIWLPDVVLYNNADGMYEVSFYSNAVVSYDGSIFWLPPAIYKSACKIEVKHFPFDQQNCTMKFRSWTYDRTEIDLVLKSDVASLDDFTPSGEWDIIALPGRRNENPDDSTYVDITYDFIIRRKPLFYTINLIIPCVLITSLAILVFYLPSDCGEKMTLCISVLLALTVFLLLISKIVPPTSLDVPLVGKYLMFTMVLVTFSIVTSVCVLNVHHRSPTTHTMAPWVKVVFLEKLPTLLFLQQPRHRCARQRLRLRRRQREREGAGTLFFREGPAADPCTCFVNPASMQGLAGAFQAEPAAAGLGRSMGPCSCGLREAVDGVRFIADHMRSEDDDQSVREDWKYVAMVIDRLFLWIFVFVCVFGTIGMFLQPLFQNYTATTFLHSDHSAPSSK
high affinity nAChR (Mus musculus, UniProt O70174+Q9ERK7), sequence (O70174 31-629): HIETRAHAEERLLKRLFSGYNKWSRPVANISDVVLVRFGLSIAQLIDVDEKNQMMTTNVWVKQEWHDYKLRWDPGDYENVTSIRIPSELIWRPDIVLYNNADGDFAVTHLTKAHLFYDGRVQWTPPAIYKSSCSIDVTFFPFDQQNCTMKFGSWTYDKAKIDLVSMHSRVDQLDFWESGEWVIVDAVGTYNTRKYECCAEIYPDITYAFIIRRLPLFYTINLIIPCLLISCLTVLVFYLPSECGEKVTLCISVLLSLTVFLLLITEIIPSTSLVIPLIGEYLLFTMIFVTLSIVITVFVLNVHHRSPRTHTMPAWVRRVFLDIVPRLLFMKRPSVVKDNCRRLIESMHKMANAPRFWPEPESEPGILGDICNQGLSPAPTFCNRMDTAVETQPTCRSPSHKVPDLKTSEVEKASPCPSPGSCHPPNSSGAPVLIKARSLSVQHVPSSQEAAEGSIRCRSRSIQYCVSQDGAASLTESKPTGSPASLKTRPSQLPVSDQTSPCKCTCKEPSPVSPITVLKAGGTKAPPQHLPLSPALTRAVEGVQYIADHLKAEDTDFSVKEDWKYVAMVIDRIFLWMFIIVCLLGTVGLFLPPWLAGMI
Method: (§2) Following incubation, sections were rinsed 2×2 min. in ice cold PBS and briefly rinsed in ice cold water. Slides were exposed for 60 days to Hyperfilm ^3H.
The test system of experiment [4] is high affinity nAChR. Particulars: 3H-nicotine 4 nM, brain sections of β2−/− mice.
Method: as §2
The subject of experiment [5] is β2−/− mice and their wildtype siblings. As to the method: METHODS, Passive avoidance test was performed as described in the text, according to Nordberg and Bergh^20 and Faiman et al^20. Nicotine (bitartrate, Sigma) was freshly dissolved in PBS. IP injection of the same volume of either nicotine or vehicle immediately followed footshock during the training trial.
Retention of an inhibitory avoidance response was assessed using the passive avoidance test, which was also chosen for its pharmacological sensitivity to nicotine administration ^19,20. This test consisted of a training trial in which the mouse was placed in a well-lighted chamber of a shuttle box, and the latency to enter the adjacent dark chamber was measured. Upon entry to the dark chamber, a mild, inescapable foot shock was delivered, and vehicle or nicotine (10 μg/kg) was injected into the mouse. Twenty-four (24) hours later, retention was assessed by measuring the latency to enter the dark chamber.

The next experiment has as its target high affinity sites. The settings on record: read-out: KD of high affinity sites; equilibrium binding experiments; cited from earlier work.

For the compound “5′-CCTCCCCTAGTAGTTCCTCAGGTGTTCCCTAGA [Mut.E]”, the “Competition for complexes formed with labelled E-D probe” value in experiment [1] is “no competition”.
Still for that read-out and setting: next, “5′-TCCTCCCCTAGTAGTTCCACTTGTGTTCCCTAG [E-D]”: “fully displaced”.
For `C[N+]1(C)CCN(c2ccccc2)CC1` [DMPP], in the experiment with neurons in the MHb (MHb), the “Agonist potency rank order” value is on record as “cytisine=nicotine>DMPP”. For the same compound, in experiment [2] (wild type, anterior thalamus), the “Agonist order of the response” value was “nicotine>DMPP>cytisine”.
On to `O=c1cccc2n1C[C@@H]1CNC[C@H]2C1` [cytisine], for which, in the experiment with neurons in the MHb (MHb), the “Agonist potency rank order” value is “cytisine=nicotine>DMPP”. For the same compound, the “Agonist order of the response” value in experiment [2] is recorded as “nicotine>DMPP>cytisine”.
With `CO[C@H]1CC=C2CCN3CCC4=C(CC(=O)OC4)[C@]23C1` [dihydro-β-erythroidine], the “Effect on the nicotine evoked inward current” value in experiment [2] (1 μM antagonist, 10 μM nicotine, wild type) is “blocked”.
As for `CN1CCCC1c1cccnc1` (stereo not shown) [nicotine], on high affinity nAChR [3], the “Reduction of nicotine binding in situ” value is given as “approximately 50%”. Further, the “Nicotine binding in situ” value in the experiment on high affinity nAChR [4] was “completely abolished”. Also, in experiment [5] (nicotine 10 μg/kg IP post-training, retention after 24 hours, wild type mice, p<0.01), the “Upward shift of retention latency curve” value was “approximately 80 sec”. Also, the “Effect of nicotine administration on retention” value in experiment [5] (nicotine 10 μg/kg, mutant (β2−/−) mice) is recorded as “completely ineffective”. The “Response of cells in the MHb to nicotine” value in the experiment with neurons in the MHb (mutant mice) was “maintained”. Besides, the Average inward current is on record as 505+/−132 pA with neurons in the MHb (wild type mice, MHb) and 155+/−73 pA in experiment [2] (10 μM nicotine, wild type animals). Further, the “Agonist potency rank order” value in the experiment on neurons in the MHb (MHb) is recorded as “cytisine=nicotine>DMPP”. In addition, the “Dose required for a reproducible response” value in experiment [2] (anterior thalamic neurons) amounted to 1 µM. Moreover, the “Agonist order of the response” value in experiment [2] (wild type, anterior thalamus) is “nicotine>DMPP>cytisine”. Besides, in experiment [2] (β2−/− mice, 100% of neurons tested), the “Response of anterior thalamic neurons to nicotine” value is “completely abolished”. For the same compound, the Kd on high affinity sites was roughly 10 nM.
